Source: patent publication US20120201908A1, “METHOD OF TREATING BIPOLAR DISORDER OR DEPRESSION USING AN ANTIESTROGEN” (Lunera Equities, LLLP, priority 2009, published 2012)
Entries after “also recorded” stand apart in the source; their conditions may differ. Structures can show the parent of a compound that is named as a salt. Where two headings read alike, the source gives them in different places.

Columns and labels:
[1] = test system: symptoms of bipolar disorder; test: Pilot study Subject E: tamoxifen citrate added to bipolar medication, mood charts and psychiatrist visits; assay type: in vivo, human
Source text: Subject E is a person and an insulin dependent diabetic. Subject E was diagnosed with bipolar disorder at […]. They have had surgery in the past for their knees, their neck and stitches for their head. Subject E has been institutionalized multiple times within the last nine years for their own protection. To date, no medications have seemed to help. Subject also has a history of alcoholism. Some complexity was expected in treatment due to diabetes.

[2] = test system: symptoms of bipolar disorder (bipolar disorder II); test: Case report Subject B: antiestrogen to treat symptoms of bipolar disorder; assay type: in vivo, human
Experimental: Subject B is a person in good general physical health with a family history of bipolar disorder. Subject B underwent Cholecystectomy. Subject B was diagnosed with Meniere's Syndrome. Subject B was diagnosed with bipolar disorder II, at which time Lamictal was prescribed by a psychiatrist. […] The psychiatrist then prescribed Effexor XR® (venlafaxine hydrochloride) 75 mg/daily. […] A general physician prescribed 1.5 mg/Klonopin® (Clonazepam) daily.
Subject B also remained mentally alert and stable. […] Currently, Subject B remains stable and emotionally level.
Subject B's spouse states that Subject B is much more level, enjoys their life to a new degree, no longer loses control or becomes violent without warning. The entire family feels that life is much easier since Subject B began taking the antiestrogen.

[3] = test system: symptoms of bipolar disorder (bipolar I); test: Pilot study Subject D: tamoxifen citrate added to bipolar medication, mood charts and psychiatrist visits; assay type: in vivo, human
Source text: Subject D is a person with a family history of bipolar disorder. Although Subject D had symptoms spanning Asperger's Syndrome, Bipolar I, Obsessive-Compulsive Disorder, Oppositional Defiant Disorder and anti-social traits, bipolar I was the diagnosis for several reasons, including the fact that it was present on both sides of the family and the symptoms were better suited to a bipolar diagnosis.
First visit: Day 1. Due to Subject D's extreme condition, past hospitalizations and the complicated mixture of medications, the psychiatrist spent approximately one hour with the subject. […] Subject D was also given a copy of the Gary Sach's Mood Chart for the subject and their parent to be filled out daily for the psychiatrist's weekly review.

[4] = test system: symptoms of bipolar disorder (bipolar disorder I); conditions: human, in vivo
Experimental: (§1) The following list describes the drugs that were tried in combination with Eskalith: • 1. Depakote® (Divalproex Sodium Delayed Release Tablets) 50 mg daily. […] Tegretol XR® (Carbamazepine) 200 mg twice daily. […] Risperdal® (Risperidone) 3 mg per day. […] Prozac® (Olanzapine and Fluoxetine hydrochloride) 20 mg twice daily. […] Klonopin® (Clonazepam): originally from 2002 to 2009 was 8 mg to 10 mg daily for generalized anxiety. […] Lamictal® (Lamotrigine) Titration schedule over five weeks up to 250 mg twice daily.

[5] = in vivo; cited from earlier work
[6] = test system: symptoms of bipolar disorder (bipolar disorder I); test: Case report Subject A: antiestrogen to treat symptoms of bipolar disorder; conditions: for effect of earlier medication on bipolar mood swings / side effects / reason for discontinuation of earlier medication: medication history before the antiestrogen; for mood swings with the antiestrogen as only bipolar medication: tamoxifen citrate 20 mg base equivalents or Arimidex 1 mg, once every day or every other day
Experimental: as §1

[7] = test system: symptoms of acute/severe depression; test: Case report Subject C: antiestrogen in descending daily dosing to treat acute/severe depression; assay type: in vivo, human; conditions: for time to lessening of symptoms of depression after the first dose: single dose on day one: tamoxifen citrate 20 mg or Arimidex 1 mg; for symptoms of depression after the descending dose course: tamoxifen citrate 20/10/5/2.5/2.5 mg days 1-5, Arimidex 1/0.5/0.25/0.25 mg days 1-4
Source text: Subject C is a person in good general physical health with no previous history of mental illness or depression. Subject C was prescribed Dapsone as a child in order to treat to treat dermititis herpetiformis. Subject C received no medication in the past four years. In December 2008, Subject C became lethargic, uninterested in usually pleasurable activities, restless, and began oversleeping. After a full month, symptoms of depression became extreme and subject C was thought to be in danger of becoming suicidal.
Subject C's last dose was 2.5 mg on the fifth day.
Suicidal thoughts returned and Subject C considered dropping out of law school. Subject C started a descending dose course of Arimidex®; starting with a single dose of 1 mg on day one. Again, symptoms of depression faded noticeably within 8 hours, in a manner similar to that in response to treatment with tamoxifen. Subject C took single daily doses of Arimidex®; 0.5 mg on day two; 0.25 mg each on days three and four.

[8] = test system: symptoms of bipolar disorder; conditions: Subject F; for onset of noticed difference: tamoxifen citrate 20 mg qd
Source text: In a preferred aspect, the patient fills out the mood chart on a regular basis and a family member, friend, roommate or clinical or institutional staff member who interacts with the patient on a regular basis, also records a parallel mood chart on a regular basis. […] In another aspect, a mood chart is started at the start of treatment with an antiestrogen.
Subject F is a person who experienced a coronary three years prior to starting the study that their doctors blamed on stimulants used for ADD. Subject F had stents placed following the coronary. […] They maintain a job where they can do much of the work from home. It has been over a year since they were so severe they could not get out of bed or work. They have not had any extreme episodes in the immediate past. Subject F is nearsighted and has high blood pressure.

[9] = test system: mania in patients with bipolar disorder; conditions: Yildiz et al. 2008; cited from earlier work
[10] = test system: protein kinase C alpha and epsilon isozymes; conditions: rat frontal cortex and hippocampus; Manji et al. 1999; cited from earlier work

With `O=C1CCc2ccc(OCCCCN3CCN(c4cccc(Cl)c4Cl)CC3)cc2N1` [Abilify, Aripiprazole] the “mood after self-discontinuing Abilify” value ([1]; Day 27, Abilify 5 mg qd not taken for 7 days) was “experienced some depression and mild anxiety and irritability” and the “mood after resuming Abilify” value ([1]; Day 34, Abilify 5 mg qd) was “much better week”.
With `COc1ccc(C(CN(C)C)C2(O)CCCCC2)cc1` (stereo not shown) [Effexor XR, venlafaxine hydrochloride] the “side effects / reason for discontinuation of earlier medication” value (shortened to “side effects / reason”) ([2]; Lamictal 10-12 weeks, Effexor XR 75 mg/daily for three days) was “lack of sleep, extreme mania, high anxiety and hyperactivity”.
With `Cc1ccc(-c2nc3ccc(C)cn3c2CC(=O)N(C)C)cc1` [Ambien] the sleep ([3]; Day 95, Ambien sample for trial) was “helped their sleeping”.
For `CC1=C(/C=C/C(C)=C/C=C/C(C)=C\C(=O)O)C(C)(C)CCC1` [Accutane], the “depression under Accutane” value ([3]; Day 95, Accutane 30 mg qd with tamoxifen citrate 30 mg qd) was “still shows no signs of depression”.
For `Nc1nnc(-c2cccc(Cl)c2Cl)c(N)n1` [Lamictal, Lamotrigine], the “side effects / reason” value [4] is listed as “worsening skin condition; aggravated linear IgA dermatosis”, the “patients who develop a rash” value [5] is listed as 5-10% and the “effect of earlier medication on bipolar mood swings” value (shortened to “effect of earlier medication”) [6] is listed as “Mood swings were more frequent without Lamictal”.
In the case of `NC(=O)N1c2ccccc2C=Cc2ccccc21` [Tegretol XR, Carbamazepine], the “side effects / reason” value [4] is reported as “hand and body tremors, as well as slurring of speech and numb feeling tongue” and the “effect of earlier medication” value [6] is reported as “Worked for a few weeks”.
In the case of `CCCCCCCCCC(=O)O[C@H]1CC[C@H]2[C@@H]3CCC4=CC(=O)CC[C@@H]4[C@H]3CC[C@]12C` [Nandrolone deconate], the “side effects / reason” value [6] is reported as “Erythrocytosis”.
In the case of `CC(C)(C#N)c1cc(Cn2cncn2)cc(C(C)(C)C#N)c1` [Arimidex, anastrozole], the “response when Arimidex replaces tamoxifen citrate” value ([2]; Arimidex 0.25-1 mg used interchangeably with tamoxifen citrate 10 mg every other day) is reported as “without change in response; also recorded: work equally as well”, the “symptom-free period after the course” value [7] is reported as “After five months, Subject C remains free of symptoms of depression” and the “time to lessening of symptoms of depression after the first dose” value [7] is reported as ≤ 8 h. For the same compound, the “symptoms of depression after the descending dose course” value [7] was “Symptoms of depression were substantially alleviated after day four”, the “severity of bipolar episodes and symptoms” value ([6]; Arimidex 1 mg once a day, within a week of starting) was “episodes and symptoms became less severe” and the “mood swings with the antiestrogen as only bipolar medication” value (“mood swings with the antiestrogen” below) [6] was “controls mood swings without the concurrent use of other bipolar medication; also recorded: mood swings became virtually non-existent”. The “frequency of bipolar cycles” value ([6]; while taking Arimidex 1 mg once a day) was “cycles were less frequent”.
In the case of `CN(C)CCCN1c2ccccc2CCc2ccccc21` [Imipramine hydrochloride], the “side effects / reason” value [4] is reported as “extreme hand tremors” and the “effect of earlier medication” value [6] is reported as “continued to have bipolar swings”.
With `CC/C(=C(\c1ccccc1)c1ccc(OCCN(C)C)cc1)c1ccccc1.O=C(O)CC(O)(CC(=O)O)C(=O)O` [Tamoxifen citrate, (Z)2-[4-(1,2-diphenyl-1-butenyl)phenoxy]-N,N-dimethylethanamine 2-hydroxy-1,2,3-propanetricarboxylate (1:1)] the “time remained stable since beginning treatment” value [2] was “approximately 18 months”, the bipolar symptoms ([2]; tamoxifen citrate 10 mg or 20 mg base equivalents taken regularly as only mood-stabilizing medication) was “no longer has bipolar symptoms” and the mood stability ([2]; tamoxifen citrate 20 mg base equivalents daily for two weeks) was “increased mood stability and overall feeling of well being”. For the same compound, the “symptom-free period after the course” value [7] was “three months with no symptoms of depression”, the “time to lessening of symptoms of depression after the first dose” value [7] was “within the first eight hours” and the “symptoms of depression after the descending dose course” value [7] was “Symptoms of depression were alleviated”. The “mood and energy as told to the psychiatrist” value ([3]; Day 9, tamoxifen citrate 20 mg qd) was “happier than they have been in a long time and has more energy”, the “onset of feeling more balanced” value ([3]; tamoxifen citrate 20 mg qd added to Lithium ER, Depakote ER, Risperidone, Geodon) was “began feeling more balanced after only four days” and the “reduction of concurrent bipolar medication” value (shortened to “reduction”) ([3]; to Day 153, tamoxifen 20-30 mg daily) was “the doses of Depakote ER, Risperidone and Geodon were each able to be significantly reduced and Lithium was able to be discontinued”. The response to treatment ([1]; Day 34, tamoxifen citrate 20 mg qd, other drugs cut in dose, listed as tamoxifen) was “responded well”, the “reduction” value ([1]; to Day 148, tamoxifen 20 mg daily) was “Topamax and Fluoxetine were able to be discontinued, and the dose of Abilify was significantly reduced” and the anger ([8]; Day 13, tamoxifen citrate 20 mg qd, Strattera not taken) was “felt less angry even without taking the Strattera”. The “subject's report to study coordinator” value ([8]; Day 52, Lamictal lowered to 100 mg qd) was “noticing the ability to sense their moods better”, the “mood after a forgotten dose” value ([8]; Day 70, dose forgotten the day before) was “felt more depressed than any day since they started the program” and the “out of control spending” value ([8]; Day 77) was “they have not had this problem since they went on the Tamoxifen”. The outbursts ([8]; Day 84) was “one outburst with their spouse, the first since starting Tamoxifen”, the “onset of noticed difference” value ([8]; listed as Tamoxifen) was “positive difference around four days after starting” and the “onset of noticed difference” value ([8]; listed as tamoxifen citrate) was “noticed a difference within three or four days”. For the same compound, the “moods, spending, anger (synopsis)” value ([8]; to Day 98, since starting Tamoxifen Citrate) was “their moods have been level, their normally “out of control spending” was no longer a problem and their anger and problems with spouse have all but vanished”, the “reduction” value ([8]; to Day 98, tamoxifen 20 mg daily) was “Lamictal was able to be discontinued, and Strattera was able to remain discontinued with mood stabilization” and the treatment of mania [9] was “effective in treatment of mania in patients with bipolar disorder”. For the same compound, the “mood swings with the antiestrogen” value [6] was “controls mood swings without the concurrent use of other bipolar medication” and the “mood swings with the antiestrogen” value ([6]; listed as tamoxifen citrate) was “mood swings became virtually non-existent”.
For `OCCOCCN1CCN(C2=Nc3ccccc3Sc3ccccc32)CC1` [Seroquel, quetiapine fumarate], the “side effects / reason” value [4] was “extreme tiredness and inability to function”.
For `O=C([O-])[O-].[Li+].[Li+]` [Eskalith, Lithium Carbonate], the “protein kinase C alpha and epsilon isozymes” value [10] is given as “reduction in protein kinase C alpha and epsilon isozymes”, the “effect of earlier medication” value [6] is given as “slowed the swings, but did not change the severity of either the depressive or manic episodes” and the “side effects / reason” value [6] is given as “damage to the thyroid”.
With `CC(NC(C)(C)C)C(=O)c1cccc(Cl)c1` (stereo not shown) [Wellbutrin, bupropion hydrochloride] the “side effects / reason” value [4] was “dulled their mind and slowed their thinking”.
For `Cc1nc2n(c(=O)c1CCN1CCC(c3noc4cc(F)ccc34)CC1)CCCC2` [Risperdal, Risperidone], the “side effects / reason” value [4] was “inability to work or function to a satisfactory level”.
With `C[C@]12C=CC(=O)C=C1CC[C@@H]1[C@@H]2C(=O)C[C@@]2(C)[C@H]1CC[C@]2(O)C(=O)CO` [Prednisone] the “side effects / reason” value [4] was “made all physical and mental conditions worse”.
For `CCCC(CCC)C(=O)O` [Depakote, Divalproex Sodium], the “side effects / reason” value [4] is listed as “heavy side effects” and the “protein kinase C alpha and epsilon isozymes” value [10] is listed as “reduction in protein kinase C alpha and epsilon isozymes”.
